Assay results as given in the NIST ThermoML archive (doi:10.1016/j.fluid.2018.06.003).
Numbers after ± are expanded uncertainties.

Legend:
[1] = xn = mol fraction of the nth substance listed; details: 298.15 K; 101 kPa; Liquid; Vibrating tube method; x1 = 0.3336
[2] = refractive index (Na D-line) (dimensionless); xn = mol fraction of the nth substance listed; details: 298.15 K; 101 kPa; Liquid; Standard Abbe refractometry; x1 = 0.3336

C[N+](C)(C)C.[Cl-] [tetramethylammonium chloride] + OCC(O)CO
mass density [1]: 1145.22 ± 2.1 kg/m3 | refractive index [2]: 1.47183 ± 0.00044
